Publication PMC11477218 (International Journal of Molecular Sciences, 2024)
Read-outs that look alike come from different tables or passages of the source.

Biological target: T1, 20S proteasome β5 subunit (Homo sapiens, UniProt P28074)
T1 construct: gene PSMB5; human erythrocyte 20S proteasome (constitutive); with other subunits of the 20S proteasome
T1 sequence (P28074 60-263): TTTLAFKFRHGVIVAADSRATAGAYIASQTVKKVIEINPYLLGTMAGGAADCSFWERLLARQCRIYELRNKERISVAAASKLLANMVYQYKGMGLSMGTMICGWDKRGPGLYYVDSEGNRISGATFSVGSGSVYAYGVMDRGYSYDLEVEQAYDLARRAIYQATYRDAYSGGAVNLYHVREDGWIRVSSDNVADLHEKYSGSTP
Experiment: fluorogenic Suc-LLVY-AMC chymotrypsin-like activity assay
Assay type: biochemical

Row | Structure (SMILES) | IC50 | IC50 (read-out: IC50)
1 | O=c1c(O)c(-c2ccc(O)c(O)c2)oc2cc(O)cc(O)c12 [quercetin] | 2.96 ± 0.77 µM | –
2 | COc1cc2ccn(C/C=C/C(=O)NCCC(C)C)c(=O)c2cc1OC [AM12] | – | 12.2 ± 1.8 µM
